Reference: PubChem BioAssay AID214 (DTP/NCI, 2004)
“And” between values parts separate entries of the source, which are not always exact repeats. Identical values can stand only once. Records with an inconclusive call do not appear.

System: B6C3F1 mice, colon carcinoma 38 s.c., T/C
Experiment: NCI In Vivo Anticancer Drug Screen. Data for tumor model Colon Carcinoma 38 (subcutaneous) in B6C3F1 mice
Conditions: higher = larger tumour
Protocol: The antitumor activity of compounds was measured in mice bearing transplantable tumors. Survival or tumor size were measured and the results are expressed as the measurement made in the treated group (T) divided by the measurement made in the vehicle treated control group (C). The tumor model used in this assay is Colon Carcinoma 38 (subcutaneous) in B6C3F1 mice

[1] = endpoint: median tumor weight (est.), dose: 50.0 mg/kg/injection, schedule: Q07DX002 (ip), vehicle: Klucel (hydroxypropylcellulose) (HPC)
[2] = endpoint: median tumor weight (est.), dose: 100.0 mg/kg/injection, schedule: Q07DX002 (ip), vehicle: Klucel (hydroxypropylcellulose) (HPC)
[3] = endpoint: median tumor weight (est.), dose: 200.0 mg/kg/injection, schedule: Q07DX002 (ip), vehicle: Klucel (hydroxypropylcellulose) (HPC)
[4] = endpoint: median tumor weight (est.), dose: 400.0 mg/kg/injection, schedule: Q07DX002 (ip), vehicle: Klucel (hydroxypropylcellulose) (HPC)
[5] = endpoint: median tumor weight (est.), dose: 100.0 mg/kg/injection, schedule: Q07DX002 (ip), vehicle: saline with Tween-80
[6] = endpoint: median tumor weight (est.), dose: 200.0 mg/kg/injection, schedule: Q07DX002 (ip), vehicle: saline with Tween-80
[7] = endpoint: median tumor weight (est.), dose: 400.0 mg/kg/injection, schedule: Q07DX002 (ip), vehicle: saline with Tween-80
[8] = endpoint: median tumor weight (est.), dose: 800.0 mg/kg/injection, schedule: Q07DX002 (ip), vehicle: saline with Tween-80
[9] = endpoint: median tumor weight (est.), dose: 100.0 mg/kg/injection, schedule: Q07DX002 (ip), vehicle: suspension in saline
[10] = endpoint: median tumor weight (est.), dose: 200.0 mg/kg/injection, schedule: Q07DX002 (ip), vehicle: suspension in saline
[11] = endpoint: median tumor weight (est.), dose: 50.0 mg/kg/injection, schedule: Q07DX002 (ip), vehicle: saline
[12] = endpoint: median tumor weight (est.), dose: 100.0 mg/kg/injection, schedule: Q07DX002 (ip), vehicle: saline
[13] = endpoint: median tumor weight (est.), dose: 200.0 mg/kg/injection, schedule: Q07DX002 (ip), vehicle: saline
[14] = endpoint: median tumor weight (est.), dose: 400.0 mg/kg/injection, schedule: Q07DX002 (ip), vehicle: saline

For `O=C1CC2(C(=O)N1CN1CCOCC1)c1ccccc1-c1ccccc12`, the T/C [1] was 99 % of control, the T/C [2] was 44 % of control and the T/C [3] was 107 % of control. For the same compound, the T/C [4] was 79 % of control and the T/C (endpoint: median tumor weight (est.), dose: 800.0 mg/kg/injection, schedule: Q07DX002 (ip), vehicle: Klucel (hydroxypropylcellulose) (HPC)) was 56 % of control.
With `S=C(NCNC(=S)c1ccncc1)c1ccncc1` the T/C [5] was 70 % of control, the T/C [6] was 104 % of control and the T/C [7] was 70 % of control. For the same compound, the T/C [8] was 66 % of control.
`O=C(Cc1cccc2c(=O)cc(-c3ccccc3)oc12)OCCN1CCOCC1` was tested, and the T/C (endpoint: median tumor weight (est.), dose: 50.0 mg/kg/injection, schedule: Q07DX002 (ip), vehicle: suspension in saline) was 70 % of control, the T/C [9] was 49 % of control and the T/C [10] was 68 % of control. The T/C (endpoint: median tumor weight (est.), dose: 300.0 mg/kg/injection, schedule: Q07DX002 (ip), vehicle: suspension in saline) was 17 % of control.
For `CC1CCC(NC(=O)N(CCCl)N=O)CC1` (stereo not given), the T/C (endpoint: median tumor weight (est.), dose: 4.0 mg/kg/injection, schedule: Q07DX002 (ip), vehicle: Klucel (hydroxypropylcellulose) (HPC)) was 101 % of control, the T/C (endpoint: median tumor weight (est.), dose: 8.0 mg/kg/injection, schedule: Q07DX002 (ip), vehicle: Klucel (hydroxypropylcellulose) (HPC)) was 69 % of control and the T/C (endpoint: median tumor weight (est.), dose: 16.0 mg/kg/injection, schedule: Q07DX002 (ip), vehicle: Klucel (hydroxypropylcellulose) (HPC)) was 34 % of control. The T/C (endpoint: median tumor weight (est.), dose: 32.0 mg/kg/injection, schedule: Q07DX002 (ip), vehicle: Klucel (hydroxypropylcellulose) (HPC)) was 17 % of control.
With `NC(CCC(=O)NC(CS)C(=O)NCC(=O)O)C(=O)O` (stereo not given) the T/C [11] was 89 % of control, the T/C [12] was 87 % of control and the T/C [13] was 102 % of control. For the same compound, the T/C [14] was 88 % of control and the T/C (endpoint: median tumor weight (est.), dose: 800.0 mg/kg/injection, schedule: Q07DX002 (ip), vehicle: saline) was 113 % of control.
For `O=c1[nH]cc(F)c(=O)[nH]1`, the T/C (endpoint: median tumor weight (est.), dose: 8.75 mg/kg/injection, schedule: Q07DX002 (ip), vehicle: saline) was 59 % of control, the T/C (endpoint: median tumor weight (est.), dose: 24.0 mg/kg/injection, schedule: Q01DX006 (ip), vehicle: saline) was 9 % of control and the T/C (endpoint: median tumor weight (est.), dose: 36.0 mg/kg/injection, schedule: Q01DX006 (ip), vehicle: saline) was 7 % of control. The T/C (endpoint: optimum tumor weight change, dose: 35.0 mg/kg/injection, schedule: Q07DX002 (ip), vehicle: saline) was 48 % of control, the T/C (endpoint: optimum tumor weight change, dose: 70.0 mg/kg/injection, schedule: Q07DX002 (ip), vehicle: saline) was 46 % of control and the T/C (endpoint: optimum tumor weight change, dose: 140.0 mg/kg/injection, schedule: Q07DX002 (ip), vehicle: saline) was 45 % of control.
`O=C(O)CC(=O)O.[NH-]CC[NH-].[Pt+2]` was tested, and the T/C (endpoint: median tumor weight (est.), dose: 28.13 mg/kg/injection, schedule: Q07DX002 (ip), vehicle: dextrose) was 59 % of control and the T/C (endpoint: median tumor weight (est.), dose: 56.25 mg/kg/injection, schedule: Q07DX002 (ip), vehicle: dextrose) was 81 % of control.
For `CCC1=C2C(=O)c3ccccc3C2=C(C)S(=O)(=O)O1`, the T/C (endpoint: median tumor weight (est.), dose: 6.25 mg/kg/injection, schedule: Q07DX002 (ip), vehicle: saline with Tween-80) was 153 % of control.
For `O=C(O)Cc1cccc2c(=O)c(-c3ccccc3)coc12`, the T/C [12] was 177 % of control, the T/C [13] was 76 % of control and the T/C [14] was 121 % of control.
With `O=[N+]([O-])c1ccc(N2CCOCC2)c2c1no[n+]2[O-]` the T/C (endpoint: median tumor weight (est.), dose: 50.0 mg/kg/injection, schedule: Q07DX002 (ip), vehicle: saline with Tween-80) was 165 % of control, the T/C [5] was 98 % of control and the T/C [6] was 103 % of control.
In the case of `C(=N/NC1=NCCN1)/c1c2ccccc2c(/C=N\NC2=NCCN2)c2ccccc12`, the T/C (endpoint: median tumor weight (est.), dose: 6.25 mg/kg/injection, schedule: Q07DX002 (ip), vehicle: saline) was 100 % of control, the T/C (endpoint: median tumor weight (est.), dose: 12.5 mg/kg/injection, schedule: Q07DX002 (ip), vehicle: saline) was 55 % of control and the T/C (endpoint: median tumor weight (est.), dose: 25.0 mg/kg/injection, schedule: Q07DX002 (ip), vehicle: saline) was 112 % of control. The T/C [11] was 81 % of control and the T/C [12] was 36 % of control.
With `Cc1cc(NCCCCCCCCNc2cc(C)nc3cc(N(C)C)ccc23)c2ccc(N(C)C)cc2n1` the T/C (endpoint: median tumor weight (est.), dose: 3.12 mg/kg/injection, schedule: Q07DX002 (ip), vehicle: distilled water + Tween-80 + alcohol) was 105 % of control, the T/C (endpoint: median tumor weight (est.), dose: 6.25 mg/kg/injection, schedule: Q07DX002 (ip), vehicle: distilled water + Tween-80 + alcohol) was 78 % of control and the T/C (endpoint: median tumor weight (est.), dose: 12.5 mg/kg/injection, schedule: Q07DX002 (ip), vehicle: distilled water + Tween-80 + alcohol) was 69 % of control. The T/C (endpoint: median tumor weight (est.), dose: 25.0 mg/kg/injection, schedule: Q07DX002 (ip), vehicle: distilled water + Tween-80 + alcohol) was 160 % of control.
With `CCNC(=O)[B-][N+](C)(C)C` the T/C (endpoint: median tumor weight (est.), dose: 25.0 mg/kg/injection, schedule: Q07DX002 (ip), vehicle: Klucel (hydroxypropylcellulose) (HPC)) was 101 % of control, the T/C [1] was 55 % of control and the T/C [2] was 87 % of control. The T/C [3] was 107 % of control and the T/C [4] was 81 % of control.
With `O=C1NC(=O)/C(=C/C=C/c2ccccc2)S1` the T/C [6] was 67 % of control, the T/C [7] was 86 % of control and the T/C [8] was 63 % of control.
For `COc1cc2c(ccc3c4cc(OC)c(OC)cc4c[n+](C)c23)cc1O`, the T/C [9] was 89 % of control and the T/C [10] was 81 % of control.
With `CCCCCCCCCCCCCCCCCCCCCC(=O)Nc1ccn(C2OC(CO)C(O)C2O)c(=O)n1` (stereo not given) the T/C [5] was 83 % of control and the T/C [6] was 35 % of control.
`CN(C)CCCNc1c2ccccc2nc2cccc([N+](=O)[O-])c12` was tested, and the T/C (endpoint: median tumor weight (est.), dose: 0.03 mg/kg/injection, schedule: Q07DX002 (ip), vehicle: saline) was 104 % of control and the T/C (endpoint: median tumor weight (est.), dose: 0.06 mg/kg/injection, schedule: Q07DX002 (ip), vehicle: saline) was 79 % of control and 221 % of control.
